According to publication PMC4411102 (PLoS ONE, 2015):
No end group written: not given here.

How the values were obtained:
HIV-host cell fusion = conditions: cited from earlier work
HIV = conditions: cited from earlier work
Text: HIV-1 infection can be targeted at various stages, for example, viral entry, viral replication or assembly of viral components. HIV entry into the host cells is facilitated by binding of viral envelope glycoprotein (gp120) to host CD4 receptor [3, 4]. CD4-gp120 interaction initiates a cascade of events that stimulates gp41 to promote viral and host membrane fusion. Inhibition of gp120-CD4 interaction or virus-host cell fusion thus appears to be an attractive strategy to prevent HIV-1 infection. Towards this, significant advances have been made. […] Moreover, some of the AMPs cause adverse effects on vaginal commensals like lactobacilli which are required to maintain low pH in vaginal mucosa.

CCR5 = tested on: CCR5; parameters: method as in PMID 20721836; conditions: cited from earlier work
gp120 of HIV-1 IIIB = test: Binding ELISA, gp120 of HIV-1 IIIB; conditions: for Binding of designed peptides to gp120: peptide-coated plate, 500ng gp120, 2 hrs at 37°C, 492nm (S1 Fig)
Procedure: (§1) After blocking with 3% bovine serum albumin (BSA) in PBS for 30 min, 100 μl of gp120 (100ng/well) in PBS-0.05% BSA was added to each well and incubated for 2 hrs at 37°C. After three washings with PBS-Tween-20 (PBS-T), cells were incubated with anti-gp120 antibody at 1:200 dilution and then with horse radish peroxidase-(HRP) conjugated secondary goat anti-human antibody (1:10000 dilution) for 1 hr at 37°C. This was followed by incubation with O-phenylenediamine for 20 min. The absorbance was measured at 492 nm on a microplate ELISA reader (ELx-800, Bio-Tek Instruments, USA). Background values obtained in the wells without HbAHP-25 were subtracted from the absorbance values from wells having all other reagents.
Supplementary file pone.0124839.s001.tif: S1 Fig Binding of designed peptides to gp120. Peptides that were designed in silico were evaluated for their binding to gp120 of HIV-1 IIIB. Peptides were coated on 96 well microtiter plate for 16 hrs and then incubated with 500ng of gp120 for 2 hrs at 37°C. This was followed by addition of anti-gp120 antibody, and absorbance was read at 492nm. Background absorbance was subtracted from the wells where peptides were not coated. […] (TIF) Click here for additional data file.

HIV-1 IIIB = test: Anti-HIV activity, p24 antigen assay in H9 cells; type: cell-based; parameters: key to Anti-HIV activity: +: moderate; ++: significant; NA: No activity; conditions: for Anti-HIV activity (in words): 0.1 MoI HIV-1 IIIB pre-incubated with peptide, H9 cells, p24 on day 4
Procedure: Supplementary file pone.0124839.s002.tif: S2 Fig Anti-HIV activity of 3 designed peptides. Anti HIV activity of three peptides was determined using H9 cells. H9 cells were infected for 4 hrs with 0.1 MoI of HIV-1 IIIB pre-incubated with various concentrations of peptides. Peptides were added post infection as well. Supernatant was collected on day 4 post infection, and p24 antigen assay was performed. […] (TIF) Click here for additional data file.
Supplementary file pone.0124839.s003.tif: S3 Fig Anti-HIV activity of peptide analogues of peptide 1. After modifying the peptide 1, we performed anti-HIV assay as earlier. HIV-1 IIIB was pre-incubated with peptide analogues for 1 hr and then added to H9 cells for 4 hrs. Levels of p24 levels were determined on day 4 post infection. […] (TIF) Click here for additional data file.

HIV-1 IIIB and ADA5 = test: Time-of-addition assay in TZM-bl cells; conditions: 71.40 μM
Procedure: Luciferase activity was measured at 48 hrs post treatment using Luminometer (ELx-800, Bio-Tek Instruments, USA). VRC01 (0.1 μM) antibody was used as a positive control.

gp120 of HIV-1 BaL = test: Binding ELISA, gp120 of HIV-1 BaL; conditions: 2.2–71.40 μM coated, gp120 100ng/well
Procedure: as §1

CXCR4 = conditions: cited from earlier work
vaginal mucosa = conditions: cited from earlier work
Text: Its activity is directed more towards the virus than to host cells. Some of the known anti-HIV peptides such as defensins have better selectivity index, but many of such peptides/molecules act as a double edged-sword. These peptides inhibit HIV infection but also lead to inflammation and/or potentiate pathogen invasion.

Enfuvirtide
Effect on HIV-host cell fusion (HIV-host cell fusion): interfere with the HIV-host cell fusion | Alleviation of HIV infections (HIV): alleviate HIV infections effectively | Resistance on long term treatment (HIV; mutations in gp41): leads to resistance

CCCCOCCOc1ccc(-c2ccc3c(c2)/C=C(/C(=O)Nc2ccc([S@@+]([O-])Cc4cncn4CCC)cc2)CCCN3CC(C)C)cc1 [Cencriviroc]
CCR5 antagonism (CCR5): CCR5 antagonists

VKGHGKKVADALTNAVAHVDDMPNALSAL [Peptide-3, Hb-α subunit derived 29-residue peptide (55–83)]
Binding of designed peptides to gp120 (gp120 of HIV-1 IIIB): showed binding to gp120 of HIV-1 IIIB | Anti-HIV activity (in words) (HIV-1 IIIB): showed anti-HIV activity | Anti-HIV activity (HIV-1 IIIB; class symbols of Table 1, HIV-1 IIIB in H9 cells, p24 (S2, S3 Fig)): +

SAQVKGHGKKVADALTNAVAHVDDMPNAL [Peptide-2, Hb-α subunit derived 29-residue peptide (52–80)]
Binding of designed peptides to gp120 (gp120 of HIV-1 IIIB): failed to show any binding | Anti-HIV activity (in words) (HIV-1 IIIB; listed as peptide 2): failed to demonstrate any activity | Anti-HIV activity (in words) (HIV-1 IIIB; listed as peptide-2): did not show any anti-HIV-1 activity

human defensin-6: antimicrobial peptide, printed as human defensin-5 and 6 (AFTCHCRRSCYSTEYSYGTCTVMGINHRFCCL; ends and bridges not checked; cysteine pairing not given here; UniProt Q01524 69-100, looked up)
Effect on HIV infection (HIV): exacerbate HIV infection

PLVKDVLRSLCNHAHKCVTLALLRH [Scrambled peptide(sP), 25 mer scrambled peptide, negative control]
Binding to recombinant gp120 of HIV-1 IIIB (gp120 of HIV-1 IIIB; ELISA, 2.2–71.40 μM coated, gp120 100ng/well): did not bind | Inhibition (scrambled control) (HIV-1 IIIB and ADA5): no inhibition | Binding to recombinant gp120 of HIV-1 BaL (gp120 of HIV-1 BaL): did not bind

c1cc(CN2CCCNCCNCCCNCC2)ccc1CN1CCCNCCNCCCNCC1 [AMD3100]
CXCR4 antagonism (CXCR4): CXCR4 antagonists

indolicidin: natural antimicrobial peptide (ILPWKWPWWPWRR; not fully specified (C-terminus); ends and bridges not checked; UniProt P33046 131-143, looked up)
Anti-HIV activity (HIV): reported to have anti-HIV activity

CCCCCCCCCc1ccc(OCCOCCOCCOCCOCCOCCOCCOCCOCCO)cc1 [Nonoxynol-9]
Effects on vaginal mucosa (vaginal mucosa): caused detrimental effects on vaginal mucosa
